In US4978673A, “Organic salts of physostigmine derivatives” (priority 1987, dated 1990):
In brackets after ≈: the same amount, converted by molar mass.

Legend:
water solubility = format: physicochemical
in vivo = settings: rat, po
[1] = toxicity in the rat (LD50, oral); settings: in vivo

Structure (SMILES): CCCCCCCNC(=O)Oc1ccc2c(c1)C1(C)CCN(C)C1N2C (centres unmarked) [Example 1]
- solubility (water solubility; water): 700 mg/mL (≈ 1950 mM)

Structure (SMILES): CCCCCCCNC(=O)Oc1ccc2c(c1)C1(C)CCN(C)C1N2C (centres unmarked) [corresponding non-salified derivative]
- water solubility (in words) (water solubility; non-salified derivative): insoluble

Structure (SMILES): CCCCCCCNC(=O)Oc1ccc2c(c1)C1(C)CCN(C)C1N2C (centres unmarked) [*]
- LD50 (in vivo): 20 mg/kg

Structure (SMILES): CCCCCCCCCNC(=O)Oc1ccc2c(c1)C1(C)CCN(C)C1N2C (centres unmarked) [***]
- LD50 [1]: 50 mg/kg

Structure (SMILES): CCCCNC(=O)Oc1ccc2c(c1)C1(C)CCN(C)C1N2C (centres unmarked) [**]
- LD50 [1]: 6 mg/kg
